From patent US20220073981A1 (KOREA INSTITUTE OF SCIENCE AND TECHNOLOGY, priority 2020, published 2022)

Test system: BEAS-2B cell line
Assay: Cytotoxicity test (MTT assay)
Format: cell-based, human
Details: 48 hours exposure
Experimental: An MTT assay was performed using the BEAS-2B cell line according to the method of Mossman et al. (J. Immunol. Methods, 65, 55-63, 1983).

SMILES: CCC(C)=O [2-butanone]
- concentration (IC5) showing the 95% survival rate: 22270 µM
- concentration showing the 80% survival rate: 106210 µM
